How the values were obtained:
NCI-H1975 [1] = assay: Induction of apoptosis in human NCI-H1975 cells assessed as early apoptotic cells at 50 nM incubated for 24 hrs by propidium iodide and annexin-V FITC staining based flow cytometry (reference value: 0.94 %); format: functional
[2] = Selectivity index, ratio of IC50 for human HEK293A cells to IC50 for human NCI-H1975 cells expressing EGFR T790M/L858R mutant; format: toxicity
NCI-H1975 [3] = assay: Induction of apoptosis in human NCI-H1975 cells assessed as viable cells at 25 nM incubated for 24 hrs by propidium iodide and annexin-V FITC staining based flow cytometry (reference value: 98.82 %); format: functional; settings: NCI-H1975, 24 h, read-out: Activity
NCI-H1975 [4] = assay: Inhibition of cell migration in human NCI-H1975 cells at 25 nM incubated for 24 hrs by phase contrast microscopy relative to control; format: functional; settings: Homo sapiens, NCI-H1975, 24 h
NCI-H1975 [5] = assay: Induction of apoptosis in human NCI-H1975 cells assessed as late apoptotic cells at 5 nM incubated for 24 hrs by propidium iodide and annexin-V FITC staining based flow cytometry (reference value: 0.23 %); format: functional
[6] = AUC (0 to t) in ICR mouse at 5 mg/kg, iv; format: ADME, organism-based; settings: in vivo
[7] = Cmax in ICR mouse at 10 mg/kg, po; format: ADME, organism-based; parameters: dose 10 mg/kg, route oral; settings: in vivo
[8] = molecular target: Epidermal growth factor receptor (Homo sapiens, UniProt P00533, L858R/T790M); assay: Inhibition of recombinant human GST-tagged EGFR T790M/L858R mutant expressed in baculovirus expression system using Tyr 04 as substrate incubated for 1 hr by Z'-LYTE assay
Epidermal growth factor receptor (Homo sapiens, UniProt P00533, L858R/T790M), sequence (P00533 25-1210 T790M/L858R limits assumed): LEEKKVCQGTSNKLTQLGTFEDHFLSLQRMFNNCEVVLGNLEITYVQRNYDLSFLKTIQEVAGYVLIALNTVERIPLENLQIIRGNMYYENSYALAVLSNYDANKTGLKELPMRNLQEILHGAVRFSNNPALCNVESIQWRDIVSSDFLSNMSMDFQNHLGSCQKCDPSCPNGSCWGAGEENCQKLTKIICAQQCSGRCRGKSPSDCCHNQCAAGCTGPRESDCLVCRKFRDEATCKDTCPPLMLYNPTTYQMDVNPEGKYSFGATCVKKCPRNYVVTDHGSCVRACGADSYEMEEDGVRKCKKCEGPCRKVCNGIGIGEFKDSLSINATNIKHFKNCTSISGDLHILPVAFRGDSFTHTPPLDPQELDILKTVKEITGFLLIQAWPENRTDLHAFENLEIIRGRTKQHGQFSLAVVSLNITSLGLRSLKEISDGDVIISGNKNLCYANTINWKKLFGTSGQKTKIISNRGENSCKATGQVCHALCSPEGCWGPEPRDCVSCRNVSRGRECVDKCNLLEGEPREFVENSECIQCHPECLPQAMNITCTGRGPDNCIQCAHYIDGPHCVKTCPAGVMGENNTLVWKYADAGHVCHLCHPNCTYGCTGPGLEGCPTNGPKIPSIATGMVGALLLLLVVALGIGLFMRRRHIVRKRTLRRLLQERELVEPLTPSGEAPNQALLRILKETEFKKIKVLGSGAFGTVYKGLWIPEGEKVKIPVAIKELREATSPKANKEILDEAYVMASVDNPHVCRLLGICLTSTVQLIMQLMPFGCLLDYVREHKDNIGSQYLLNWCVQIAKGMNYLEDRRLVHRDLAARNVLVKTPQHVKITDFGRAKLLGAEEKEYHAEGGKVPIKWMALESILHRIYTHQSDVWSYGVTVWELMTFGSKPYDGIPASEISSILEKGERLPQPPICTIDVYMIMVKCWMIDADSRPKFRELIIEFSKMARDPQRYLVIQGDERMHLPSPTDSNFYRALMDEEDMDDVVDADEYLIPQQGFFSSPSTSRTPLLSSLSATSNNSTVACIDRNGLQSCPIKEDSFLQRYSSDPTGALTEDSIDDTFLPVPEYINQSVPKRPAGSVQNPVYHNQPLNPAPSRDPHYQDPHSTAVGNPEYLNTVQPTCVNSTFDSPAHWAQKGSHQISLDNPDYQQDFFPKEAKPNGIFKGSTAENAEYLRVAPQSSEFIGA

[9] = MRT (0 to t) in ICR mouse at 5 mg/kg, iv; format: ADME, organism-based; settings: in vivo
NCI-H1975 [10] = assay: Induction of apoptosis in human NCI-H1975 cells assessed as viable cells at 50 nM incubated for 72 hrs by propidium iodide and annexin-V FITC staining based flow cytometry (reference value: 97.55 %); format: functional; settings: NCI-H1975, 72 h, read-out: Activity
[11] = Tmax in ICR mouse at 10 mg/kg, po; format: ADME, organism-based; settings: in vivo
NCI-H1975 [12] = assay: Induction of apoptosis in human NCI-H1975 cells assessed as necrotic cells at 5 nM incubated for 72 hrs by propidium iodide and annexin-V FITC staining based flow cytometry (reference value: 0.01 %); format: functional
NCI-H292 = assay: Antiproliferative activity against human NCI-H292 cells expressing EGFR assessed as reduction in cell viability incubated for 72 hrs by MTT assay; format: functional, cell-based; settings: nci-h292
PC-9 = assay: Antiproliferative activity against human PC9 cells expressing EGFR L858R mutant assessed as reduction in cell viability incubated for 72 hrs by MTT assay; format: functional, cell-based; settings: pc-9
NCI-H1975 [13] = assay: Induction of apoptosis in human NCI-H1975 cells assessed as early apoptotic cells at 5 nM incubated for 72 hrs by propidium iodide and annexin-V FITC staining based flow cytometry (reference value: 2.43 %); format: functional
NCI-H1975 [14] = assay: Induction of apoptosis in human NCI-H1975 cells assessed as early apoptotic cells at 25 nM incubated for 24 hrs by propidium iodide and annexin-V FITC staining based flow cytometry (reference value: 0.94 %); format: functional
NCI-H1975 [15] = assay: Induction of apoptosis in human NCI-H1975 cells assessed as late apoptotic cells at 50 nM incubated for 72 hrs by propidium iodide and annexin-V FITC staining based flow cytometry (reference value: 0.01 %); format: functional
NCI-H1975 [16] = assay: Induction of apoptosis in human NCI-H1975 cells assessed as late apoptotic cells at 5 nM incubated for 48 hrs by propidium iodide and annexin-V FITC staining based flow cytometry (reference value: 0.23 %); format: functional
NCI-H1975 [17] = assay: Inhibition of cell migration in human NCI-H1975 cells at 50 nM incubated for 24 hrs by phase contrast microscopy relative to control; format: functional; settings: NCI-H1975, 24 h
NCI-H1975 [18] = assay: Induction of apoptosis in human NCI-H1975 cells assessed as necrotic cells at 5 nM incubated for 48 hrs by propidium iodide and annexin-V FITC staining based flow cytometry (reference value: 0.01 %); format: functional
NCI-H1975 [19] = assay: Induction of apoptosis in human NCI-H1975 cells assessed as necrotic cells at 50 nM incubated for 48 hrs by propidium iodide and annexin-V FITC staining based flow cytometry (reference value: 0.01 %); format: functional
[20] = Selectivity index, ratio of IC50 for human HK2 cells to IC50 for human NCI-H1975 cells expressing EGFR T790M/L858R mutant
[21] = molecular target: Epidermal growth factor receptor (Homo sapiens, UniProt P00533, L858R); assay: Inhibition of recombinant human GST-tagged EGFR L858R mutant expressed in baculovirus expression system using Tyr 04 as substrate incubated for 1 hr by Z'-LYTE assay
Epidermal growth factor receptor (Homo sapiens, UniProt P00533, L858R), sequence (P00533 25-1210 L858R limits assumed): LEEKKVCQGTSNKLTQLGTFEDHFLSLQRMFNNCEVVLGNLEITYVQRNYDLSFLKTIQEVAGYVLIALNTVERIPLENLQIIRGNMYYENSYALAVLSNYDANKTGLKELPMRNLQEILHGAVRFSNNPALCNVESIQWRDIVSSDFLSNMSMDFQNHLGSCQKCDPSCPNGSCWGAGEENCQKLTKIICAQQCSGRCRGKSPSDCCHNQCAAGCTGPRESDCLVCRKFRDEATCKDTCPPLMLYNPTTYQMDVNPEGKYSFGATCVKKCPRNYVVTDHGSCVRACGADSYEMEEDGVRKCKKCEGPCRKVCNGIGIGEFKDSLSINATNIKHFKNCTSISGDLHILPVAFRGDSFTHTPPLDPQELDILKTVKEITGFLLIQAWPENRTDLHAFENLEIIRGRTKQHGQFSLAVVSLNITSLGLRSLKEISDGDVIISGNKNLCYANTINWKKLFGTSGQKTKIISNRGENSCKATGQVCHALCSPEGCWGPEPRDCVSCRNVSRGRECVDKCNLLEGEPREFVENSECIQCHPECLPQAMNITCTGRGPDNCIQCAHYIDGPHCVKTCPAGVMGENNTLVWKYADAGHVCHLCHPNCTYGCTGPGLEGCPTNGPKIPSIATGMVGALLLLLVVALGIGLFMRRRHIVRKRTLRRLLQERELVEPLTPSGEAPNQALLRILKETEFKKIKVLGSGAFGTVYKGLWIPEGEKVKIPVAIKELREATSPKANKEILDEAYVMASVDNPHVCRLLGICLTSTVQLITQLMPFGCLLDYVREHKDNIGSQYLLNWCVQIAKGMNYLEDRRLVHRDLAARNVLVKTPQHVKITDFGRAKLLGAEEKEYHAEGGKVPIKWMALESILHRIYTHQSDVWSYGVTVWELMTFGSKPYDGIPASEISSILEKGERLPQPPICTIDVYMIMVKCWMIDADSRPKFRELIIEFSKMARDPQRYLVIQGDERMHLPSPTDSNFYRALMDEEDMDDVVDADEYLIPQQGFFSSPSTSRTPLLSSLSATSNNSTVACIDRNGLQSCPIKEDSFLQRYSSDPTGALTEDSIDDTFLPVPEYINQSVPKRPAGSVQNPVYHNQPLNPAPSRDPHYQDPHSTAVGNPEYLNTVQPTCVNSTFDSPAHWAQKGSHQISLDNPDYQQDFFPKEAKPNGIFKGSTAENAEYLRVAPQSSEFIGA

[22] = AUC (0 to t) in ICR mouse at 10 mg/kg, po; format: ADME, organism-based; settings: in vivo
NCI-H1975 [23] = assay: Induction of apoptosis in human NCI-H1975 cells assessed as late apoptotic cells at 50 nM incubated for 48 hrs by propidium iodide and annexin-V FITC staining based flow cytometry (reference value: 0.23 %); format: functional
[24] = Selectivity index, ratio of IC50 for human LO2 cells to IC50 for human NCI-H1975 cells expressing EGFR T790M/L858R mutant; format: toxicity
[25] = Half life in ICR mouse at 10 mg/kg, po; format: ADME, organism-based; settings: in vivo
NCI-H1975 [26] = assay: Induction of apoptosis in human NCI-H1975 cells assessed as necrotic cells at 50 nM incubated for 72 hrs by propidium iodide and annexin-V FITC staining based flow cytometry (reference value: 0.01 %); format: functional
[27] = Cytotoxicity against human HLF cells expressing EGFR assessed as reduction in cell viability incubated for 72 hrs by MTT assay; format: cell-based
NCI-H1975 [28] = assay: Induction of apoptosis in human NCI-H1975 cells assessed as viable cells at 50 nM incubated for 24 hrs by propidium iodide and annexin-V FITC staining based flow cytometry (reference value: 98.82 %); format: functional; settings: NCI-H1975, 24 h, read-out: Activity
NCI-H1975 [29] = assay: Induction of apoptosis in human NCI-H1975 cells assessed as necrotic cells at 50 nM incubated for 24 hrs by propidium iodide and annexin-V FITC staining based flow cytometry (reference value: 0.01 %); format: functional
NCI-H1975 [30] = assay: Induction of apoptosis in human NCI-H1975 cells assessed as late apoptotic cells at 25 nM incubated for 72 hrs by propidium iodide and annexin-V FITC staining based flow cytometry (reference value: 0.01 %); format: functional
NCI-H1975 [31] = assay: Induction of apoptosis in human NCI-H1975 cells assessed as early apoptotic cells at 25 nM incubated for 72 hrs by propidium iodide and annexin-V FITC staining based flow cytometry (reference value: 2.43 %); format: functional

With C=CC(=O)Nc1cc(Nc2nccc(-c3cn(C)c4ccccc34)n2)c(OC)cc1[S+]([O-])CCN(C)C (single isomer, unassigned; (-)) the Activity (NCI-H1975 [1]) was 31.61%, the “Ratio IC50” value [2] was 192 and the viability at 0.025 µM (NCI-H1975 [3]) was 76.8%. For the same molecule, the inhibition at 0.025 µM (NCI-H1975 [4]) was 69.7%, the Activity (NCI-H1975 [5]) was 1.17% and the AUC(0-t) [6] was 1290 ng·h/mL. The Cmax [7] was 695 ng/mL, the IC50 [8] was 4 nM and the MRT last [9] was 1.15 h. It also gave a viability at 0.05 µM (NCI-H1975 [10]) of 11.3%, a Tmax [11] of 30 min and an Activity (NCI-H1975 [12]) of 1.2%. For the same molecule, the IC50 (NCI-H292) was 1090 nM, the IC50 (PC-9) was 15 nM and the Activity (NCI-H1975 [13]) was 21.59%. It also gave an Activity (NCI-H1975 [14]) of 22.23%, an Activity (NCI-H1975 [15]) of 30.74% and an Activity (NCI-H1975 [16]) of 0.06%. The inhibition at 0.05 µM (NCI-H1975 [17]) was 87.6%, the Activity (NCI-H1975 [18]) was 0.05% and the Activity (NCI-H1975 [19]) was 0.71%. The “Ratio IC50” value [20] was >1000, the IC50 [21] was 4 nM and the AUC(0-t) [22] was 1910 ng·h/mL. For the same molecule, the Activity (NCI-H1975 [23]) was 29.59%, the “Ratio IC50” value [24] was > 1000 and the half-life [25] was 104 min. For the same molecule, the Activity (NCI-H1975 [26]) was 1.84%, the IC50 [27] was 9.14 µM and the viability at 0.05 µM (NCI-H1975 [28]) was 65.6%. It also gave an Activity (NCI-H1975 [29]) of 0.45%, an Activity (NCI-H1975 [30]) of 21.68% and an Activity (NCI-H1975 [31]) of 43.25%.
